Assay [1] has as its target T1, panel of ninety-seven kinases (Homo sapiens, UniProt Q9BXA7).
T1 construct: purchased DiscoverX; host or cells: T7 phage in E. coli (BL21-derived) for most kinases; HEK-293 for the rest
Kind of assay: DiscoverX KinomeScreen kinase selectivity competition binding assay. Conditions: TSSK1B; read-out: % Ctrl @ 3 μM. In short, it runs like this:
(§1)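 Site-directed competition binding: kinase (T7 phage-tagged or HEK-293-expressed, DNA-tagged) captured on immobilized biotinylated ligand beads, with compound at 3000 nM. Bound kinase eluted and quantified by qPCR. Reported as % Ctrl, with DMSO as 100% and control compound as 0%.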

In assay [2] the target is T2, panel of ninety-seven kinases (Homo sapiens, UniProt Q96GD4).
T2 construct: purchased DiscoverX; host or cells: T7 phage in E. coli (BL21-derived) for most kinases; HEK-293 for the rest
T2 sequence (Q96GD4 whole entry): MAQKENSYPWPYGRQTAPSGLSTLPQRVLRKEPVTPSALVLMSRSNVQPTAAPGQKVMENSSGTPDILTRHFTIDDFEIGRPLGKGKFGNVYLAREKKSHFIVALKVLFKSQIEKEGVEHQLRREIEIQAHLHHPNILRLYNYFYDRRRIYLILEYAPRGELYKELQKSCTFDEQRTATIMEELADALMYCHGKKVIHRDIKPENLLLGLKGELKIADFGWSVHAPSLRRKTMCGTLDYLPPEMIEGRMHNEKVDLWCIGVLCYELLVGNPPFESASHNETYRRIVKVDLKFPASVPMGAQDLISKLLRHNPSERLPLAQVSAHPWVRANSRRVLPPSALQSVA
Described as above. Conditions: AURKB; read-out: % Ctrl @ 3 μM. In a few lines: as §1

Assay [3] addresses T3, panel of ninety-seven kinases (Homo sapiens, UniProt P06213).
T3 construct: purchased DiscoverX; host or cells: T7 phage in E. coli (BL21-derived) for most kinases; HEK-293 for the rest
The assay is described as above. The settings on record: INSR; read-out: % Ctrl @ 3 μM. In a few lines:
as §1

Assay [4] deals with T4, panel of ninety-seven kinases (Homo sapiens, UniProt P50613).
T4 construct: purchased DiscoverX; host or cells: T7 phage in E. coli (BL21-derived) for most kinases; HEK-293 for the rest
T4 sequence (P50613 whole entry): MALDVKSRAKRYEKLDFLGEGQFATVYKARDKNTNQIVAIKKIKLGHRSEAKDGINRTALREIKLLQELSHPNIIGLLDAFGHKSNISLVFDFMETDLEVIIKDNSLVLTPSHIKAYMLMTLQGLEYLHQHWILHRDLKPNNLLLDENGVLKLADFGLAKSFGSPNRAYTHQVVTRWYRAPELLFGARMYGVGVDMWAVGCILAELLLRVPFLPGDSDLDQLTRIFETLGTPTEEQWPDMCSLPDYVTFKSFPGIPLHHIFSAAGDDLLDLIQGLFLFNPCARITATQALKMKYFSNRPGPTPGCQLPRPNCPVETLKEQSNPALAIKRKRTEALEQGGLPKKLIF
The assay is described as above. Conditions: CDK7; read-out: % Ctrl @ 3 μM. In short, it runs like this:
as §1

Assay [5] concerns the target T5, panel of ninety-seven kinases (Homo sapiens, UniProt O14757).
T5 construct: purchased DiscoverX; host or cells: T7 phage in E. coli (BL21-derived) for most kinases; HEK-293 for the rest
Described as above. Conditions: CHEK1; read-out: % Ctrl @ 3 μM. In a few lines: as §1

Assay [6] deals with HeLa cells stably expressing a Centrin1-GFP fusion protein. As to the kind of experiment: Centriole number in Centrin1-GFP HeLa cells. It counts as cell-based. Conditions: 0.02 μM, 72 hours. Here is the method: The effects of A-1 and A-2 on centrosome function were therefore investigated further. HeLa cells stably expressing a Centrin1-GFP fusion protein were seeded into 96-well plates overnight. Cells were treated with atropisomer A-1 or atropisomer A-2 (at concentrations of 0.02 μM in DMSO) or DMSO control for 72 hours and then imaged using a fluorescence microscope. Multiple cell fields were captured for each treatment condition, and the images were subsequently analysed manually. Centrin1-GFP specifically marks centrioles as discrete foci, and therefore can be used to quantitate centriole number per cell. Thus, for each treatment condition, 100 cells were analysed and the number of centrioles present in each cell was recorded. The data were then separated into bins (no centrioles, 1 centriole, 2 centrioles, and greater than 2 centrioles) and are shown in FIG. 11.

Assay [7] deals with U87MG cells. Kind of assay: Mitotic phenotype study in U87MG cells. The format is cell-based, human. Conditions: 0.03 μM, listed as A-2. Here is the method: Distinct mitotic phenotypes are induced following inhibition of PLK1 and PLK4 in cells. […] Centriole assembly is controlled by PLK4, with inhibitors inducing a multipolar spindle phenotype due to centrosome defects which results in abnormal cyokinesis (Wong et al., 2015. Science 348(6239); 1155-1160). Cells were plated at 10 000/well in 96-well plates and incubated overnight. The following day atropisomer A-2 stocks in DMSO were diluted in medium then added to cells with a maximum final DMSO concentration on cells of 0.2%. Cells were incubated with the compound for 24 hours then fixed in 3.7% formaldehyde. Cells were permeabilised with 0.1% Triton X-100 then incubated with anti-phospho-histone H3 (Ser10) antibody (Abcam). The cells were washed with PBS then incubated with AlexaFluor 488 labelled goat anti-rabbit IgG (Invitrogen) in the presence of 4 ug/mL Hoechst 33342 (Invitrogen). Cells were washed in PBS then imaged on an Arrayscan VTi HCS instrument using the Target Activation V4 Bioapplication. A user-defined threshold was applied to identify mitotic cells based on the intensity of phospho-histone H3 staining. In a separate study, following the above protocol and using single compound concentrations of 0.03 μM for each of atropisomer A-1 and atropisomer A-2, the frequency of observed mitotic phenotypes in U87MG cells was manually assessed and classified into the following phenotypes: non-congressed chromosomes, multipolar spindles/abnormal cytokinesis, monopolar spindles, normal prometaphase, normal metaphase for each of A-1 and A-2.

In assay [8] the test system is panel of 48 cancer-derived cell lines. As to the kind of experiment: Proliferation assay on diverse cancer cell line panel, CellTiter-Glo, 72 hours. It counts as cell-based. Conditions: for IC50: 72 hours, listed as A-2. Here is the method:
Screening against diverse cancer cell lines was performed to identify tumour types displaying sensitivity to atropisomers A-1 and A-2. A panel of 48 cancer-derived cell lines was screened in a high-throughput proliferation assay using dilutions of atropisomers A-1/A-2. Cell lines that were screened included those representing cancer of the pancreas, large intestine/colorectum, lung, brain and nerves, and lymphoma and leukaemia cell lines. Cell lines were treated with serial half-log dilutions of compound and assayed 72 hours later for proliferation using CellTiter-Glo Assay (Promega). IC50 values were calculated by fitting the dose-response data using a nonlinear regression model.
A general note: In ATP-based viability assays light output follows the ATP content of the culture.

T3 sequence (P06213 28-1382): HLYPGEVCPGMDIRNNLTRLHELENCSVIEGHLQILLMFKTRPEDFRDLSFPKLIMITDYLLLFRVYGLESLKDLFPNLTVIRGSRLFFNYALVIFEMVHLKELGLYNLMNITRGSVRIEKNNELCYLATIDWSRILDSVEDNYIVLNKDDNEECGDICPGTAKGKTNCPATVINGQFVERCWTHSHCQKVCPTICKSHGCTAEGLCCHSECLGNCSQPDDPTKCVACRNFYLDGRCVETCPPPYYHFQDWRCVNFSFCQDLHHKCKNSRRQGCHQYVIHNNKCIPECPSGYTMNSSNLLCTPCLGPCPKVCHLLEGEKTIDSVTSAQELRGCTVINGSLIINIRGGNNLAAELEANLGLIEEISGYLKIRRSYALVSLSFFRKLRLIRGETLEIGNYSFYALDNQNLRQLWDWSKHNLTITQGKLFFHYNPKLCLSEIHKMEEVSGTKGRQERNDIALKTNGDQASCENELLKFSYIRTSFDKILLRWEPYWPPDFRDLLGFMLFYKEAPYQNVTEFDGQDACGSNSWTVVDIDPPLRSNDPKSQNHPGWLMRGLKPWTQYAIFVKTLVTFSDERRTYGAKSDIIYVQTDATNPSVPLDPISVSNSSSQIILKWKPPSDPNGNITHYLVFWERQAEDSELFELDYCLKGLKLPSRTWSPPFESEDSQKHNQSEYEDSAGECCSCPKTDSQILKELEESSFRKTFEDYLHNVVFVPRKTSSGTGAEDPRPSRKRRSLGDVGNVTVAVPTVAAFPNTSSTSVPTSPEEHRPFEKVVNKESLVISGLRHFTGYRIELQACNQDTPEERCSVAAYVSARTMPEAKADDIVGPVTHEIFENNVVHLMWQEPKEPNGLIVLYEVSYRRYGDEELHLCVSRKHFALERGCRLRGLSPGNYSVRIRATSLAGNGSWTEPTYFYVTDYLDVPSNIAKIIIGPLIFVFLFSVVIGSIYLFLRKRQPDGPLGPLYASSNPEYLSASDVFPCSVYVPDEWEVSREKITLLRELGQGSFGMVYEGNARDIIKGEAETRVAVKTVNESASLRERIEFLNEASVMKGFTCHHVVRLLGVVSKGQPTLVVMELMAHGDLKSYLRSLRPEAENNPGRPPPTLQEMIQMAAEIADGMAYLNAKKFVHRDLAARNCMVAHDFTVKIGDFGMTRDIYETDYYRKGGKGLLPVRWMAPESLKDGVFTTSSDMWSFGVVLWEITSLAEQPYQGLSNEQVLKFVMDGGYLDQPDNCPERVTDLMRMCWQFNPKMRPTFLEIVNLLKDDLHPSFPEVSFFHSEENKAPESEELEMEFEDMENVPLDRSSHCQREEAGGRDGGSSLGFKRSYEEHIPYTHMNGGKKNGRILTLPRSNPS
T5 sequence (O14757 whole entry): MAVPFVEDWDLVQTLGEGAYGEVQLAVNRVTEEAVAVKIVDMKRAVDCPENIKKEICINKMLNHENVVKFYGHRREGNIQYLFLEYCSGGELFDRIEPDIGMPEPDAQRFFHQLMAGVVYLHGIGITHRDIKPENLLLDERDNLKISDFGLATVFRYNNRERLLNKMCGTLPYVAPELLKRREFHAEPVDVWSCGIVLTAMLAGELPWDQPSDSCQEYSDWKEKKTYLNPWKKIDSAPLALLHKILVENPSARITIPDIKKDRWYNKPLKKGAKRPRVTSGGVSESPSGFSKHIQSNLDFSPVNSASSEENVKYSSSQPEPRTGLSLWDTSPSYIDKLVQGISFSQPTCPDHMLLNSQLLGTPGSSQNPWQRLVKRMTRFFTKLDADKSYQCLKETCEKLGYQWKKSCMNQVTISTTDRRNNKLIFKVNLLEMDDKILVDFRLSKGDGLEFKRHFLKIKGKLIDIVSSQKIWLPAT
T1 sequence (Q9BXA7 whole entry): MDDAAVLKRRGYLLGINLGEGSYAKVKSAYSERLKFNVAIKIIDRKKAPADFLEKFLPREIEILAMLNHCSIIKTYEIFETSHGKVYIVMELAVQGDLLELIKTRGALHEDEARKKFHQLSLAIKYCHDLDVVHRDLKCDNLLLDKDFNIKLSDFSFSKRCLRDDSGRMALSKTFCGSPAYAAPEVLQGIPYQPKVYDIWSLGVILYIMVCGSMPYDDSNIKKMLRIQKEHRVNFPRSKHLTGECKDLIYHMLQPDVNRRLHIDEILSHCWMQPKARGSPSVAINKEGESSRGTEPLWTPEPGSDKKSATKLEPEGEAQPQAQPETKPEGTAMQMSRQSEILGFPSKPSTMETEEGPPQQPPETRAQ

With `CN(C)CCNC(=O)c1ccc(-c2ccc(-c3ccc(Cl)cc3)n2-c2ccccc2C(F)(F)F)cc1` (single isomer, unassigned) [Atropisomer A-2, 4-[5-(4-chlorophenyl)-1-[2-(trifluoromethyl)phenyl]pyrrol-2-yl]-N-[2-(dimethylamino)ethyl]benzamide], the percent of control kinase binding to immobilized ligand at 3 µM in assay [1] came to 100%; in assay [2] it was 84%; in assay [3], 100%; in assay [4], 100%; in assay [5] it was 100%. Further, the “PLK4 inhibition phenotypes (centriole number)” value in assay [6] is recorded as “exhibits evidence of PLK4 inhibition phenotypes”. For the same compound, the “cells with abnormal cytokinesis” value in assay [7] was 70%. For the same compound, the “cells with non-congressed chromosomes” value in assay [7] is 13%. In assay [7], the “cells with normal mitotic phenotype” value stood at 17%. In addition, the IC50 in assay [8] (HOT 116, Large intestine/Colorectum) stood at 230 nM; in assay [8] (ML-2, Blood/Leukaemia), 180 nM; in assay [8] (SVV620, Large intestine/Colorectum) it was 190 nM. For the same compound, the “cell growth inhibition compared with atropisomer A-1” value in assay [8] (all of the cell lines of the panel) is listed as “significantly more active”.

Usually IC50 stands for the concentration needed to halve the response being measured. A low value points to inhibition by little substance.

The record behind these values is patent publication US20220348565A1, “PHARMACEUTICAL COMPOUNDS” (SENTINEL ONCOLOGY LIMITED, priority 2019, published 2022).
